Test system: human ventricular trabeculae
Assay: Action potential recording and pro-arrhythmic score analysis in human ventricular trabeculae (hVT);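 note: sharp microelectrode action potential recordings at 37°C in Tyrode-perfused trabeculae, 4 cumulative concentrations each applied 31 min, values averaged over last 30 APs, vehicle 0.1% DMSO as control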
Settings: 1Hz; for Beat Escape (raw data) / EADs (raw data) / Refractoriness Escape (raw data): n=4 trabeculae

Structure (SMILES): Nc1nnc(-c2cccc(Cl)c2Cl)c(N)n1 [LAMOTRIGINE, Lamotrigine]
- AMAX (average raw data) (0.6-FOLD free ETPC (17µM)): 101
- AMAX percentage change compared to vehicle control (0.6-FOLD free ETPC (17µM)): -5%
- APD30 (average raw data) (0.6-FOLD free ETPC (17µM)): 147
- APD30 percentage change compared to vehicle control (0.6-FOLD free ETPC (17µM)): -2%
- APD50 (average raw data) (0.6-FOLD free ETPC (17µM)): 197
- APD50 percentage change compared to vehicle control (0.6-FOLD free ETPC (17µM)): 0%
- APD90 (average raw data) (0.6-FOLD free ETPC (17µM)): 282
- APD90 percentage change compared to vehicle control (0.6-FOLD free ETPC (17µM)): 1%
- Alternans (average raw data) (0.6-FOLD free ETPC (17µM)): 0.88
- Alternans percentage change compared to vehicle control (0.6-FOLD free ETPC (17µM)): -35%
- Beat Escape percentage change compared to vehicle control (0.6-FOLD free ETPC (17µM)): 0%
- EADs percentage change compared to vehicle control (0.6-FOLD free ETPC (17µM)): 0%
- ERP (average raw data) (0.6-FOLD free ETPC (17µM)): 0.44
- ERP percentage change compared to vehicle control (0.6-FOLD free ETPC (17µM)): 4%
- Max Dispersion (average raw data) (0.6-FOLD free ETPC (17µM)): 4.42
- Max Dispersion percentage change compared to vehicle control (0.6-FOLD free ETPC (17µM)): -5%
- RMP (average raw data) (0.6-FOLD free ETPC (17µM)): -83
- RMP percentage change compared to vehicle control (0.6-FOLD free ETPC (17µM)): -3%
- Refractoriness Escape percentage change compared to vehicle control (0.6-FOLD free ETPC (17µM)): 0%
- STV (average raw data) (0.6-FOLD free ETPC (17µM)): 0.60
- STV percentage change compared to vehicle control (0.6-FOLD free ETPC (17µM)): -26%
- Triangulation (average raw data) (0.6-FOLD free ETPC (17µM)): 136
- Triangulation percentage change compared to vehicle control (0.6-FOLD free ETPC (17µM)): 3%
- Beat Escape (raw data) (0.6-FOLD free ETPC (17µM)): 0
- EADs (raw data) (0.6-FOLD free ETPC (17µM)): 0
- Refractoriness Escape (raw data) (0.6-FOLD free ETPC (17µM)): 0
- AMAX (average raw data) (6-FOLD free ETPC (17µM)): 106
- AMAX percentage change compared to vehicle control (6-FOLD free ETPC (17µM)): -1%
- APD30 (average raw data) (6-FOLD free ETPC (17µM)): 128
- APD30 percentage change compared to vehicle control (6-FOLD free ETPC (17µM)): -15%
- APD50 (average raw data) (6-FOLD free ETPC (17µM)): 169
- APD50 percentage change compared to vehicle control (6-FOLD free ETPC (17µM)): -14%
- APD90 (average raw data) (6-FOLD free ETPC (17µM)): 249
- APD90 percentage change compared to vehicle control (6-FOLD free ETPC (17µM)): -11%
- Alternans (average raw data) (6-FOLD free ETPC (17µM)): 1.29
- Alternans percentage change compared to vehicle control (6-FOLD free ETPC (17µM)): -5%
- Beat Escape percentage change compared to vehicle control (6-FOLD free ETPC (17µM)): 0%
- EADs percentage change compared to vehicle control (6-FOLD free ETPC (17µM)): 0%
- ERP (average raw data) (6-FOLD free ETPC (17µM)): 0.41
- ERP percentage change compared to vehicle control (6-FOLD free ETPC (17µM)): -3%
- Max Dispersion (average raw data) (6-FOLD free ETPC (17µM)): 5.13
- Max Dispersion percentage change compared to vehicle control (6-FOLD free ETPC (17µM)): 10%
- RMP (average raw data) (6-FOLD free ETPC (17µM)): -87
- RMP percentage change compared to vehicle control (6-FOLD free ETPC (17µM)): 2%
- Refractoriness Escape percentage change compared to vehicle control (6-FOLD free ETPC (17µM)): 0%
- STV (average raw data) (6-FOLD free ETPC (17µM)): 0.81
- STV percentage change compared to vehicle control (6-FOLD free ETPC (17µM)): 302%
- Triangulation (average raw data) (6-FOLD free ETPC (17µM)): 121
- Triangulation percentage change compared to vehicle control (6-FOLD free ETPC (17µM)): -8%
- Beat Escape (raw data) (6-FOLD free ETPC (17µM)): 0
- EADs (raw data) (6-FOLD free ETPC (17µM)): 0
- Refractoriness Escape (raw data) (6-FOLD free ETPC (17µM)): 0
- AMAX (average raw data) (18-FOLD free ETPC (17µM)): 97
- AMAX percentage change compared to vehicle control (18-FOLD free ETPC (17µM)): -9%
- APD30 (average raw data) (18-FOLD free ETPC (17µM)): 115
- APD30 percentage change compared to vehicle control (18-FOLD free ETPC (17µM)): -23%
- APD50 (average raw data) (18-FOLD free ETPC (17µM)): 152
- APD50 percentage change compared to vehicle control (18-FOLD free ETPC (17µM)): -23%
- APD90 (average raw data) (18-FOLD free ETPC (17µM)): 244
- APD90 percentage change compared to vehicle control (18-FOLD free ETPC (17µM)): -13%
- Alternans (average raw data) (18-FOLD free ETPC (17µM)): 7.23
- Alternans percentage change compared to vehicle control (18-FOLD free ETPC (17µM)): 435%
- Beat Escape percentage change compared to vehicle control (18-FOLD free ETPC (17µM)): 25%
- EADs percentage change compared to vehicle control (18-FOLD free ETPC (17µM)): 0%
- ERP (average raw data) (18-FOLD free ETPC (17µM)): 0.39
- ERP percentage change compared to vehicle control (18-FOLD free ETPC (17µM)): -7%
- Max Dispersion (average raw data) (18-FOLD free ETPC (17µM)): 10.63
- Max Dispersion percentage change compared to vehicle control (18-FOLD free ETPC (17µM)): 127%
- RMP (average raw data) (18-FOLD free ETPC (17µM)): -90
- RMP percentage change compared to vehicle control (18-FOLD free ETPC (17µM)): 5%
- Refractoriness Escape percentage change compared to vehicle control (18-FOLD free ETPC (17µM)): 0%
- STV (average raw data) (18-FOLD free ETPC (17µM)): 5.08
- STV percentage change compared to vehicle control (18-FOLD free ETPC (17µM)): 477%
- Triangulation (average raw data) (18-FOLD free ETPC (17µM)): 130
- Triangulation percentage change compared to vehicle control (18-FOLD free ETPC (17µM)): -2%
- Beat Escape (raw data) (18-FOLD free ETPC (17µM)): 1
- EADs (raw data) (18-FOLD free ETPC (17µM)): 0
- Refractoriness Escape (raw data) (18-FOLD free ETPC (17µM)): 0
- AMAX (average raw data) (59-FOLD free ETPC (17µM)): 39
- AMAX percentage change compared to vehicle control (59-FOLD free ETPC (17µM)): -63%
- APD30 (average raw data) (59-FOLD free ETPC (17µM)): 48
- APD30 percentage change compared to vehicle control (59-FOLD free ETPC (17µM)): -69%
- APD50 (average raw data) (59-FOLD free ETPC (17µM)): 66
- APD50 percentage change compared to vehicle control (59-FOLD free ETPC (17µM)): -67%
- APD90 (average raw data) (59-FOLD free ETPC (17µM)): 169
- APD90 percentage change compared to vehicle control (59-FOLD free ETPC (17µM)): -38%
- Alternans (average raw data) (59-FOLD free ETPC (17µM)): 6.14
- Alternans percentage change compared to vehicle control (59-FOLD free ETPC (17µM)): 354%
- Beat Escape percentage change compared to vehicle control (59-FOLD free ETPC (17µM)): 100%
- EADs percentage change compared to vehicle control (59-FOLD free ETPC (17µM)): 0%
- ERP (average raw data) (59-FOLD free ETPC (17µM)): 0.38
- ERP percentage change compared to vehicle control (59-FOLD free ETPC (17µM)): -10%
- Max Dispersion (average raw data) (59-FOLD free ETPC (17µM)): 28.20
- Max Dispersion percentage change compared to vehicle control (59-FOLD free ETPC (17µM)): 503%
- RMP (average raw data) (59-FOLD free ETPC (17µM)): -74
- RMP percentage change compared to vehicle control (59-FOLD free ETPC (17µM)): -9%
- Refractoriness Escape percentage change compared to vehicle control (59-FOLD free ETPC (17µM)): 0%
- STV (average raw data) (59-FOLD free ETPC (17µM)): 3.94
- STV percentage change compared to vehicle control (59-FOLD free ETPC (17µM)): 2736%
- Triangulation (average raw data) (59-FOLD free ETPC (17µM)): 121
- Triangulation percentage change compared to vehicle control (59-FOLD free ETPC (17µM)): 1%
- Beat Escape (raw data) (59-FOLD free ETPC (17µM)): 4
- EADs (raw data) (59-FOLD free ETPC (17µM)): 0

Source: PMC5760531, “Action Potential Recording and Pro-arrhythmia Risk Analysis in Human Ventricular Trabeculae” (Frontiers in Physiology, 2018)
